Starred links: 1 amine or outer side, 2 acyl side, 3 side chain; linkers in the order of their positions; H or OH if unused. Positions of bridges follow the written chain, without caps; N, C: chain ends. Residues, ends and D or L forms follow the SMILES beside them. *: point of attachment. C18 diacid = O=C(O)CCCCCCCCCCCCCCCCC(=O)*; γGlu = O=C(O)[C@H](CCC(=O)[*:2])N[*:1]; AEEA = NCCOCCOCC(=O)O

The target in this assay is T1, human natriuretic peptide receptor 2 (hNPR2) (Homo sapiens, UniProt P20594).
T1 construct: expressed in transfected cells; host or cells: HEK293 (ATCC CRL-1573), clone 35, co-transfected with pGloSensor-42F
T1 sequence (P20594 23-1047): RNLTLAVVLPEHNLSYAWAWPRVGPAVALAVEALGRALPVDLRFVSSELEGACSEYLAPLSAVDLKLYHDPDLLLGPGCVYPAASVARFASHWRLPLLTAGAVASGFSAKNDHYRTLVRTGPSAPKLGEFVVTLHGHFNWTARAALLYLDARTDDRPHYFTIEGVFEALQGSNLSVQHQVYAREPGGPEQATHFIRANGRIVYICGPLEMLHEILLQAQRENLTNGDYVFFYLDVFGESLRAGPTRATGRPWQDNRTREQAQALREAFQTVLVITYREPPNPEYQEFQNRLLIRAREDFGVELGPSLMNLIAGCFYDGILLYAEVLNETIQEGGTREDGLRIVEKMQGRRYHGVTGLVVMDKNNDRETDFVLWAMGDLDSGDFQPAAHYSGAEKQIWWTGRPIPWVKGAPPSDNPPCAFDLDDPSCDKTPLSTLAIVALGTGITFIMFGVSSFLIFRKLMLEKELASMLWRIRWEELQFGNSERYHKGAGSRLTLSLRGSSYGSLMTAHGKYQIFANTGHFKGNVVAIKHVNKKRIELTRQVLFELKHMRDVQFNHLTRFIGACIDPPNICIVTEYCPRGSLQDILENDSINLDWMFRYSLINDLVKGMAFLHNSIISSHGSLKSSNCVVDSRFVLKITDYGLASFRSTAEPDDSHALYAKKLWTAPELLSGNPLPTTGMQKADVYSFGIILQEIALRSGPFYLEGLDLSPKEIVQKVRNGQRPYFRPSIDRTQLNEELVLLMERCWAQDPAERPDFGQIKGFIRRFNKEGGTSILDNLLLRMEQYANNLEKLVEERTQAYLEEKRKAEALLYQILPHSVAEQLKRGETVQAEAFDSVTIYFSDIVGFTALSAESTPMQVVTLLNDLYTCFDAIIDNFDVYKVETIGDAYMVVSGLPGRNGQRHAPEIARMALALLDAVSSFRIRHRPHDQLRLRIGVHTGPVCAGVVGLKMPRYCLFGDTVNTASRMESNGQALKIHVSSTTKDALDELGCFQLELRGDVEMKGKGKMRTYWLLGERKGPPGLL
The assay is described as follows: In vitro hNPR2 activity assay (cGMP GloSensor reporter, HEK293). Format: cell-based. Conditions: for EC50: 0% HSA, HEK293-hNPR2/GloSensor cells; for hNPR2 0% HSA. [EC50% rel CNP]: potency relative to CNP22 (0065). How it is done: To evaluate the in vitro activity of CNP22 (0065; Chem. 1) and CNP compounds of the invention, they were tested for their ability to induce production of cyclic guanosine monophosphate (cGMP) in reporter cells expressing the human natriuretic peptide receptor 2 (hNPR2).
Cell culture: To produce the reporter cell line, HEK293 (ATCC® CRL-1573™) cells were stably transfected with the pGloSensor-42F reporter plasmid (GloSensor cGMP reporter—luciferase, Promega) and an expression plasmid encoding the hNPR2 receptor. A single cell clone was isolated for the reporter cell line. When reporter cells are exposed to an hNPR2 activating compound, hNPR2 cause production of cGMP. […] Active GloSensor luciferase is able to convert luciferin to oxyluciferin, a process that produces bioluminescence. Upon cell lysis and supply of luciferase substrate, luciferase activity can be quantified by detection of luminescence. Therefore, addition of an hNPR2 activating compound and subsequent addition of detection reagent to reporter cells causes generation of luminescence in a dose dependent manner. […] This measure, also referred to as in vitro potency, is reported for all compounds tested. In all the in vitro activity experiments, CNP22 was used as a positive in-plate control for hNPR2 activation. To reduce inter-assay variation, we also report the potency of each compound relative to the potency of the CNP22 control on each plate.
Procedure: HEK293-hNPR2/GloSensor clone 35 cells were continuously cultured in selection medium (DMEM containing 10% FCS, 1% P/S, 200 μg/mL G418 and 100 μg/mL hygromycin). To perform the assay, cells were detached with TrypLE Express (Gibco #12604013), put through a 70 μm cell strainer, counted and seeded in 30 μL/well assay medium (DMEM without phenol red and with 1% P/S) at 10,000 cells/well in white 384-well plates (Perkin Elmer #6007680) overnight. The following day, test compounds were serial diluted in dilution medium (DMEM without phenol red containing 1% OVA (Sigma #A5505 lot 04M7001V), 0.01% Tween20 (Roche #33766700) and 1% P/S) and 10 μL/well of diluted test compounds were subsequently added to the cells. For each compound, ten different concentrations in the range 0.25 μM-10 μM were tested. After 30 min of incubation at 37° C. and 5% CO2, 40 μL/well Bright-Glo detection reagent (Promega #E2650) was added. […] To determine the in vitro potency or EC50 of each test compound, a four parameter logistic regression was done on the raw data for each test compound using the Python package SciPy optimize. The average EC50 values are listed as “hNPR2 0% HSA. [EC50 (nM)]” in Table 2. A relative potency was calculated by the following expression: EC50 (CNP22 in-plate control)/EC50 (test compound)*100, shown as “hNPR2 0% HSA. [EC50% rel CNP]” in Table 2. A minimum of two replicates was measured for each test compound.

In the case of `CC[C@H](C)[C@@H]1NC(=O)[C@H](CCCNC(=N)N)NC(=O)[C@H](CC(=O)O)NC(=O)[C@H](CC(C)C)NC(=O)[C@H](CCCCN)NC(=O)[C@H](CC(C)C)NC(=O)CNC(=O)[C@H](Cc2ccccc2)NC(=O)[C@@H](NC(=O)CNC(=O)[C@H](CCCCN)NC(=O)[C@H](CO)NC(=O)[C@H](CC(C)C)NC(=O)CNC(=O)[C@H](CCCCN)NC(=O)[C@H](CCC(=O)O)NC(=O)[C@H](CCC(N)=O)NC(=O)[C@H](C)NC(=O)CNC(=O)[C@H](Cc2c[nH]cn2)NC(=O)[C@H](CCC(=O)O)NC(=O)COCCOCCNC(=O)COCCOCCNC(=O)CC[C@H](NC(=O)CCCCCCCCCCCCCCCCC(=O)O)C(=O)O)CSSC[C@@H](C(=O)O)NC(=O)CNC(=O)[C@H](CC(C)C)NC(=O)CNC(=O)[C@H](CO)NC(=O)[C@H](CC(C)C)NC(=O)[C@H](CO)NC(=O)CNC1=O` [compound 1236] ({C18 diacid-γGlu-AEEA-AEEA}-EHGAQEKGLSKGCFGLKLDRIGSLSGLGC-OH; disulfide 13-29; C-terminus assumed), the EC50 came to 3.4 nM and the “hNPR2 0% HSA. [EC50% rel CNP]” value was 6.1%.

For `CC[C@H](C)[C@@H]1NC(=O)[C@H](CCCNC(=N)N)NC(=O)[C@H](CC(=O)O)NC(=O)[C@H](CC(C)C)NC(=O)[C@H](CCCCN)NC(=O)[C@H](CC(C)C)NC(=O)CNC(=O)[C@H](Cc2ccccc2)NC(=O)[C@@H](NC(=O)CNC(=O)[C@H](CCCCN)NC(=O)[C@H](CO)NC(=O)[C@H](CC(C)C)NC(=O)CNC(=O)[C@H](CCCCN)NC(=O)[C@H](CCC(=O)O)NC(=O)[C@H](CCC(N)=O)NC(=O)[C@H](C)NC(=O)CNC(=O)[C@H](Cc2c[nH]cn2)NC(=O)[C@H](Cc2ccc(O)cc2)NC(=O)COCCOCCNC(=O)COCCOCCNC(=O)CC[C@H](NC(=O)CCCCCCCCCCCCCCCCC(=O)O)C(=O)O)CSSC[C@@H](C(=O)O)NC(=O)CNC(=O)[C@H](CC(C)C)NC(=O)CNC(=O)[C@H](CO)NC(=O)[C@H](CC(C)C)NC(=O)[C@H](CO)NC(=O)CNC1=O` [compound 1237] ({C18 diacid-γGlu-AEEA-AEEA}-YHGAQEKGLSKGCFGLKLDRIGSLSGLGC-OH; disulfide 13-29), a half-maximal effect (EC50) was put at 1.95 nM and the “hNPR2 0% HSA. [EC50% rel CNP]” value is recorded as 11.8%.

Turning to `CC[C@H](C)[C@@H]1NC(=O)[C@H](CCCNC(=N)N)NC(=O)[C@H](CC(=O)O)NC(=O)[C@H](CC(C)C)NC(=O)[C@@H]2CCCN2C(=O)[C@H](CC(C)C)NC(=O)CNC(=O)[C@H](Cc2ccccc2)NC(=O)[C@@H](NC(=O)CNC(=O)[C@H](CCCCN)NC(=O)[C@H](CO)NC(=O)[C@H](CC(C)C)NC(=O)CNC(=O)[C@H](CCCCN)NC(=O)[C@H](CCC(=O)O)NC(=O)[C@H](CCC(N)=O)NC(=O)[C@H](C)NC(=O)CNC(=O)[C@H](Cc2c[nH]cn2)NC(=O)[C@H](Cc2ccc(O)cc2)NC(=O)COCCOCCNC(=O)COCCOCCNC(=O)CC[C@H](NC(=O)CCCCCCCCCCCCCCCCC(=O)O)C(=O)O)CSSC[C@@H](C(=O)O)NC(=O)CNC(=O)[C@H](CC(C)C)NC(=O)CNC(=O)[C@H](CO)NC(=O)[C@H](CC(C)C)NC(=O)[C@H](CO)NC(=O)CNC1=O` [compound 1240] ({C18 diacid-γGlu-AEEA-AEEA}-YHGAQEKGLSKGCFGLPLDRIGSLSGLGC-OH; disulfide 13-29; C-terminus assumed), the “hNPR2 0% HSA. [EC50% rel CNP]” value was 11.2%.

As to `CC[C@H](C)[C@@H]1NC(=O)[C@H](CCCNC(=N)N)NC(=O)[C@H](CC(=O)O)NC(=O)[C@H](CC(C)C)NC(=O)[C@@H]2CCCN2C(=O)[C@H](CC(C)C)NC(=O)CNC(=O)[C@H](Cc2ccccc2)NC(=O)[C@@H](NC(=O)CNC(=O)[C@H](CO)NC(=O)[C@H](CO)NC(=O)[C@H](CC(C)C)NC(=O)CNC(=O)[C@H](CCCCN)NC(=O)[C@H](CCC(=O)O)NC(=O)[C@H](CCC(N)=O)NC(=O)[C@H](C)NC(=O)CNC(=O)[C@H](Cc2c[nH]cn2)NC(=O)[C@H](Cc2ccc(O)cc2)NC(=O)COCCOCCNC(=O)COCCOCCNC(=O)CC[C@H](NC(=O)CCCCCCCCCCCCCCCCC(=O)O)C(=O)O)CSSC[C@@H](C(=O)O)NC(=O)CNC(=O)[C@H](CC(C)C)NC(=O)CNC(=O)[C@H](CO)NC(=O)[C@H](CC(C)C)NC(=O)[C@H](CO)NC(=O)CNC1=O` [compound 1242] ({C18 diacid-γGlu-AEEA-AEEA}-YHGAQEKGLSSGCFGLPLDRIGSLSGLGC-OH; disulfide 13-29), the “hNPR2 0% HSA. [EC50% rel CNP]” value was 5.4%. On the same count and under the same terms, for `CC[C@H](C)[C@@H]1NC(=O)[C@H](CCCNC(=N)N)NC(=O)[C@H](CC(=O)O)NC(=O)[C@H](CC(C)C)NC(=O)[C@@H]2CCCN2C(=O)[C@H](CC(C)C)NC(=O)CNC(=O)[C@H](Cc2ccccc2)NC(=O)[C@@H](NC(=O)CNC(=O)[C@H](CCC(N)=O)NC(=O)[C@H](CO)NC(=O)[C@H](CC(C)C)NC(=O)CNC(=O)[C@H](CCCCN)NC(=O)[C@H](CCCCN)NC(=O)[C@H](CCC(=O)O)NC(=O)[C@H](C)NC(=O)CNC(=O)[C@H](CCC(=O)O)NC(=O)[C@H](Cc2ccc(O)cc2)NC(=O)COCCOCCNC(=O)COCCOCCNC(=O)CC[C@H](NC(=O)CCCCCCCCCCCCCCCCC(=O)O)C(=O)O)CSSC[C@@H](C(=O)O)NC(=O)CNC(=O)[C@H](CC(C)C)NC(=O)CNC(=O)[C@H](CO)NC(=O)[C@H](CC(C)C)NC(=O)[C@H](CO)NC(=O)CNC1=O` [compound 1274] ({C18 diacid-γGlu-AEEA-AEEA}-YEGAEKKGLSQGCFGLPLDRIGSLSGLGC-OH; disulfide 13-29) the value was 13.2%; for `CC[C@H](C)[C@@H]1NC(=O)[C@H](CCCNC(=N)N)NC(=O)[C@H](CC(=O)O)NC(=O)[C@H](CC(C)C)NC(=O)[C@@H]2CCCN2C(=O)[C@H](CC(C)C)NC(=O)CNC(=O)[C@H](Cc2ccccc2)NC(=O)[C@@H](NC(=O)CNC(=O)[C@H](CO)NC(=O)[C@H](CO)NC(=O)[C@H](CC(C)C)NC(=O)CNC(=O)[C@H](CCCCN)NC(=O)[C@H](CCC(=O)O)NC(=O)[C@H](CCC(N)=O)NC(=O)[C@H](C)NC(=O)CNC(=O)[C@H](CCC(=O)O)NC(=O)COCCOCCNC(=O)COCCOCCNC(=O)CC[C@H](NC(=O)CCCCCCCCCCCCCCCCC(=O)O)C(=O)O)CSSC[C@@H](C(=O)O)NC(=O)CNC(=O)[C@H](CC(C)C)NC(=O)CNC(=O)[C@H](CO)NC(=O)[C@H](CC(C)C)NC(=O)[C@H](CO)NC(=O)CNC1=O` [compound 1287] ({C18 diacid-γGlu-AEEA-AEEA}-EGAQEKGLSSGCFGLPLDRIGSLSGLGC-OH; disulfide 12-28), 2.9%.

The record behind these values is patent US20240209028A1, “CNP COMPOUNDS” (priority 2022, published 2024).
